What was measured:
[1] = tested on: human melanoma cell lines; test: MTT assays of human melanoma cell lines; assay type: cell-based; details: several melanoma cell lines, 72 h
Method: (§1) FIGS. 2A-2D illustrate the cytotoxicity of PET-16 to human tumor cells and its inhibition on E. coli growth. FIG. 2A is a line graph with data obtained from MTT assays of human melanoma cell lines treated with the indicated concentrations of PES or PET-16 for 72 h. The corresponding cell survival is normalized to vehicle (DMSO) treatment. Average and standard deviation (s.d.) from three independent experiments are shown. FIG. 2B are bar graphs of human melanoma (A875) cells and nontransformed human (IMR90) fibroblasts that were treated with DMSO, 10 μM PES or 10 μM PET-16 for 24 h. […] FIG. 2C is a line graph illustrating the growth of E. coli DH5α treated with different concentrations of PES or PET-16 for 6 h at 43° C. Error bars represent the s.d. of four independent experiments. FIG. 2D is a bar graph illustrating the growth of E. coli DH5α treated with DMSO, 30 μM PET-16 or 30 μM TPP for 6 h at 43° C. Error bars represent the s.d. of four independent experiments.
MTT assays of human melanoma cell lines, as indicated, treated with the indicated concentration of PET-16 for 72 hours. The corresponding cell survival is normalized to vehicle (DMSO) treatment. Average and standard deviation (s.d.) from three independent experiments are shown.

[2] = tested on: E. coli DH5α; test: Growth of E. coli DH5α at 43° C.; assay type: cell-based
Method: as §1
FIGS. 9A-9H illustrate that PET-16 binds directly to ADP-bound HSP70 and is cytotoxic to human tumor cells. FIGS. 9A-9C are ITC assays of the interaction of PET-3C with purified human HSP70-ADP (A), human HSP70-ATP (B) and DnaK-ADP (C) proteins. The data are representative of three independent experiments. FIG. 9D is a line graph of an MTT assay of the human melanoma cell line 1205 Lu treated with the indicated concentrations of PET-16 (---) or PET-3C (-) for 72 h. The corresponding cell survival is normalized to the DMSO-treatment. Average and standard deviation (s.d.) from three independent experiments are shown. FIG. 9E is a line graph illustrating the growth of E. coli DH5α strain treated with different concentrations of PET-16 (black) or PET-3C (gray) for 6 h at 43° C. Error bars represent the s.d. of four independent experiments. FIG. 9F is a bar graph illustrating the growth of E. coli DH5α treated with DMSO, 30 μM PET-16, 30 μM PET-3C or 30 μM TPP for 6 h at 43° C. Error bars represent the s.d. of four independent experiments. […]

[3] = tested on: LC3; test: Western blot for autophagy marker LC3; assay type: cell-based, human; details: A875 melanoma cell line
Source text: FIGS. 4A-4L illustrate that PET-16 impairs proteostasis. […] There is a general absence of obvious nuclei in PET-16 treated tumor cells. […] FIGS. 4D and 4E are gels of whole-cell extracts (WCE) prepared from human melanoma A875 (D) or 451 Lu (E) cells treated with DMSO, PES or PET-16 that were immunoprecipitated using an anti-HSP70 antibody. The excised band of about 70 kDa shown in the Coomassie gel is HSP70, as confirmed by liquid chromatography—tandem mass spectrometry analysis. FIGS. 4F-4I are western blots of cell lines were treated with DMSO, PES or PET-16 for 24 h and immunoblotted for the indicated proteins. FIG. 4J are western blots of indicated melanomas pretreated with DMSO, PES or PET-16, followed by treatment with IL-6. Cell extracts were immunoblotted for the proteins indicated. Inhibition of IL-6 induced STAT3 and STAT1 phosphorylation by PET-16. FIG. 4K is a western blot analysis indicating altered processing of cathepsin L from the larger precursor form to the smaller mature form in the indicated cells following PET-16 treatment for 24 h. FIG. 4L is a western blot of the human melanoma 451 Lu cells treated with DMSO, PES or PET-16 for 24 h. Cells were harvested in 1% NP40-containing lysis buffer, fractionated into detergent-soluble and detergent-insoluble preparations, and assayed by western blot for ubiquitin. […]

[4] = tested on: melanoma tumor cell lines; test: Cellular ATP levels (AlamarBlue assay) in tumor cells; assay type: cell-based, human
Source text: FIGS. 5A-5F illustrates that PET-16 leads to loss of mitochondrial protein Cyclophilin D and impairs bioenergetics in tumor cells. FIGS. 5A-5D are western blots of HSP70, which is present at mitochondria of tumor H1299 cells but not in normal tissue, such as liver. The constitutively expressed 70 kDa family members, HSC70 and GRP75, are present in mitochondria of normal cells. Equal amounts of whole cell (WC)-, cytosolic (cyto)-, and mitochondrial (mito)-extracts prepared from cell lines H1299 (A, C) and MIA PaCa-2 (B) or normal (liver) cells (C, D) were examined by western blot analysis for the presence of the proteins indicated. […] Decreases of AlamarBlue® fluorescence, indicative of mitochondrial damage, are noted in PET-16-treated tumor cells (melanoma tumor cell line WM88 (-), melanoma tumor cell line WM3000 (×), melanoma tumor cell line WM852 (*), human melanoma 451 Lu cells (●), and melanoma tumor cell line WM989 (|), but not normal cells (nontransformed human fibroblasts (IMR90-♦) and primary melanocytes (▪)). Values are normalized to the vehicle-treated cells. Error bars represent standard deviation (s.d.) of four independent experiments.

## C(#C[P+](c1ccccc1)(c1ccccc1)c1ccccc1)c1ccccc1.[Br-] [PET-16, triphenyl(phenylethynyl)phosphonium bromide]
[1]
  IC50: 0.5 to 1.5 µM
[2]
  E. coli phenotype: cell filamentation and reduced viability
[2]; 6 h at 43° C.
  effect on growth of E. coli: impaired bacterial growth
[3]
  autophagy marker processed LC3II: increase
[4]
  AlamarBlue fluorescence (mitochondrial function): clear decrease

Reference: patent US10010560B2, “Small molecule HSP70 inhibitors” (THE TRUSTEES OF THE UNIVERSITY OF PENNSYLVANIA, priority 2014, dated 2018)
